Test results as given in US10517889B2, “Modulators of SMAD7 expression” (Ionis Pharmaceuticals, Inc., priority 2017, dated 2019).
Strand notation (5' to 3'): a small letter for the sugar, then the base; units joined by * are phosphorothioate-linked, units joined directly phosphodiester-linked; [ ] holds rarer units or linkages, { } end groups; capitals alone tell only the bases. k = constrained ethyl (cEt); [5mC] = 5-methylcytosine; d = 2'-deoxy (DNA)

Tested on: human SMAD7 mRNA
Assay: Antisense inhibition of human SMAD7 mRNA expression in Hep3B cells by 3-10-3 cEt gapmers, 10,000 nM, electroporation (Example 2)
Type: cell-based
Conditions: approximately 24 hours
Outline: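 Hep3B, 20,000 cells/well; electroporation, 10,000 nM ASO; ~24 h. Readout: SMAD7 mRNA by qRT-PCR (RTS5062), RIBOGREEN-normalised; % inhibition vs untreated.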

[1] = Hep3B cells, electroporation with 10,000 nM antisense oligonucleotide, SMAD7 mRNA by RT-PCR (RTS5062), relative to untreated control cells
[2] = Hep3B cells, electroporation with 10,000 nM antisense oligonucleotide, primer probe set RTS5062, relative to untreated control cells
[3] = Hep3B cells, electroporation, 10,000 nM antisense oligonucleotide, RTS5062, relative to untreated control cells
[4] = Hep3B cells, 10,000 nM antisense oligonucleotide, electroporation, RT-PCR primer probe set RTS5062, relative to untreated control cells

Substance: 798899 (kG*kG*k[5mC]*dA*dG*d[5mC]*dT*dG*d[5mC]*dT*dG*dA*dT*kG*kA*kA; antisense) [compound 798899]
- % Inhibition [1]: 13%

Substance: 799495 (antisense k[5mC]*kT*kA*dA*d[5mC]*dA*dG*dG*dA*dA*dT*dA*dT*kA*k[5mC]*kA) [compound 799495]
- % inhibition of SMAD7 mRNA expression [2]: 25%

Substance: 790492 (kT*k[5mC]*k[5mC]*d[5mC]*dG*dT*dA*dA*dG*dA*dT*dT*d[5mC]*kA*k[5mC]*kA; antisense) [compound 790492]
- % Inhibition [1]: 38%

Substance: 799818 (antisense k[5mC]*kA*k[5mC]*dT*dG*dA*dT*dA*dA*d[5mC]*dT*dA*dA*k[5mC]*kT*kT) [compound 799818]
- % inhibition of SMAD7 mRNA expression [3]: 24%

Substance: 798691 (antisense k[5mC]*kG*k[5mC]*dA*d[5mC]*dG*dG*d[5mC]*dT*d[5mC]*d[5mC]*dT*d[5mC]*k[5mC]*kA*kG) [compound 798691]
- % inhibition of SMAD7 mRNA expression [2]: 42%

Substance: 800032 (kG*kA*kA*dT*dT*d[5mC]*d[5mC]*d[5mC]*d[5mC]*dG*d[5mC]*d[5mC]*dA*kT*kT*kT; antisense) [compound 800032]
- % Inhibition [4]: 0%

Substance: 829860 (antisense kG*kT*k[5mC]*dA*dG*d[5mC]*dT*dG*dG*dA*dT*dG*d[5mC]*k[5mC]*kG*k[5mC]) [compound 829860]
- % Inhibition (SMAD7 mRNA, Hep3B cells, electroporation with 10,000 nM antisense oligonucleotide, primer probe set RTS5062, relative to untreated control cells): 31%

Substance: 799420 (antisense k[5mC]*kA*kA*dG*dA*d[5mC]*d[5mC]*dA*dA*dA*dA*dA*dT*kT*k[5mC]*kA) [compound 799420]
- % inhibition of SMAD7 mRNA expression [2]: 32%

Substance: 790545 (kA*kA*kA*dG*dA*dG*dT*dT*dT*dG*d[5mC]*dA*dT*kG*kA*kA; antisense) [compound 790545]
- % Inhibition [2]: 24%

Substance: 799113 (antisense kG*kA*kT*dG*dG*dG*dA*dG*d[5mC]*dA*dG*dG*d[5mC]*kA*kG*kT) [compound 799113]
- % Inhibition [2]: 57%

Substance: 799586 (kG*kA*kG*dG*dA*dG*dG*d[5mC]*dA*d[5mC]*dT*d[5mC]*dA*kG*kG*k[5mC]; antisense) [compound 799586]
- % Inhibition (Hep3B cells, electroporation with 10,000 nM antisense oligonucleotide, RTS5062, percent inhibition of SMAD7 mRNA relative to untreated control cells): 50%

Substance: 798750 (antisense kA*kG*kG*dA*dG*dG*d[5mC]*dA*d[5mC]*dG*d[5mC]*dG*dG*kT*kG*k[5mC]) [compound 798750]
- % inhibition of SMAD7 mRNA expression [2]: 54%

Substance: 800055 (antisense kA*kT*kA*dA*dA*d[5mC]*dT*dT*dG*dT*dG*dA*dG*k[5mC]*kG*k[5mC]) [compound 800055]
- % Inhibition [4]: 8%

Substance: 799145 (antisense k[5mC]*kT*kT*dG*dG*dG*dT*dT*dA*dT*dG*dA*d[5mC]*kG*kG*kA) [compound 799145]
- % inhibition of SMAD7 mRNA expression [2]: 46%

Substance: 799793 (kG*kT*kT*d[5mC]*dT*dT*d[5mC]*d[5mC]*dT*dG*d[5mC]*dT*dG*kT*k[5mC]*kA; antisense) [compound 799793]
- % inhibition of SMAD7 mRNA expression [3]: 30%

Substance: 799927 (antisense kT*k[5mC]*k[5mC]*d[5mC]*dA*dA*dG*d[5mC]*d[5mC]*dT*dA*d[5mC]*dA*kT*kA*kT) [compound 799927]
- % Inhibition [1]: 0%

Substance: 772557 (antisense kG*kT*k[5mC]*d[5mC]*dA*dG*dG*d[5mC]*dG*dG*d[5mC]*d[5mC]*dG*kG*kG*k[5mC]) [compound 772557]
- % Inhibition [1]: 2%

Substance: 799057 (antisense kG*kG*k[5mC]*dT*d[5mC]*dG*d[5mC]*dT*dG*d[5mC]*dT*d[5mC]*dA*kG*kA*kA) [compound 799057]
- % Inhibition [2]: 0%

Substance: 799812 (antisense k[5mC]*kA*kG*dA*d[5mC]*dA*dG*d[5mC]*dT*dA*dA*dT*d[5mC]*kT*kG*k[5mC]) [compound 799812]
- % inhibition of SMAD7 mRNA expression [3]: 39%

Substance: 799440 (antisense kT*kA*kG*dA*dA*dA*dA*dG*dT*dT*dA*dA*dG*kA*kG*kG) [compound 799440]
- % inhibition of SMAD7 mRNA expression [2]: 41%
